Data reported in patent publication US7781590B2, “Piperidinylalkylcarbamate derivatives, methods for their preparation and the therapeutic use thereof as fatty acid amido hydrolase enzyme inhibitors” (Sanofi-Aventis, priority 2004, dated 2010).

Columns and labels:
[1] = biological target: T1, enzyme FAAH (fatty acid amide hydrolase) (Mus musculus, UniProt O08914); test: radioenzymatic assay of FAAH inhibition (hydrolysis of anandamide [1-3H ethanolamine], mouse brain membrane homogenates); assay type: biochemical; settings: 10 μM anandamide, 15 minutes at 25° C., read-out: IC50 (concentration inhibiting by 50% the control enzymatic activity of FAAH)
T1 construct: Membrane homogenates are prepared at the time of use by homogenizing the tissues in a Polytron; from tissue; host or cells: mouse brain (minus the cerebellum), membrane homogenate
T1 sequence (O08914 1-579): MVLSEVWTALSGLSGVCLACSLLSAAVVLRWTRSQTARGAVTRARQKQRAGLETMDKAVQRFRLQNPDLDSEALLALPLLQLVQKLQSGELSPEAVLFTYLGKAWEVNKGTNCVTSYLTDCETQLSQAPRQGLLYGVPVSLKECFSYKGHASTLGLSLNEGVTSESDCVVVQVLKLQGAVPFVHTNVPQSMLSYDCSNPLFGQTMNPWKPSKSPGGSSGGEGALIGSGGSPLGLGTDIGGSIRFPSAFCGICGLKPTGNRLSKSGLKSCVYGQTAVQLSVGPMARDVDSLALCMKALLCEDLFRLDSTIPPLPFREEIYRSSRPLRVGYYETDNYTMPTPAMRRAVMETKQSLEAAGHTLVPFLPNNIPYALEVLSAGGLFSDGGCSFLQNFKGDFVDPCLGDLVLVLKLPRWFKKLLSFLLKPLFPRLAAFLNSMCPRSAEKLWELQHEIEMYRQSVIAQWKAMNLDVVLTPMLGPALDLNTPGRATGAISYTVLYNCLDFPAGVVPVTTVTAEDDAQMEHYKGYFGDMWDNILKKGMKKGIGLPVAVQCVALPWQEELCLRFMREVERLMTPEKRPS
Protocol: The compounds of the invention were subjected to pharmacological tests allowing determination of their inhibitory effect on the enzyme FAAH (fatty acid amide hydrolase).
Accordingly, mouse brains (minus the cerebellum) are removed and stored at −80° C. Membrane homogenates are prepared at the time of use by homogenizing the tissues in a Polytron in a 10 mM Tris-HCl buffer (pH 8.0) containing 150 mM NaCl and 1 mM EDTA. The enzymatic reaction is subsequently conducted in 70 μl of buffer containing bovine serum albumin without fatty acids (1 mg/ml). In succession the test compounds, at various concentrations, anandamide [1-^3H ethanolamine] (specific activity: 15-20 Ci/mmol) diluted to 10 μM with cold anandamide, and the membrane preparation (400 μg of frozen tissue per assay) are added. After 15 minutes at 25° C., the enzymatic reaction is terminated by adding 140 μl of chloroform/methanol (2:1). The mixture is stirred for 10 minutes and then centrifuged for 15 minutes at 3500 g. An aliquot (30 μl) of the aqueous phase containing the ethanolamine [1-^3H] is counted by liquid scintillation.

[2] = system: male OF1 mice; test: analgesia test: abdominal stretches induced by PBQ (phenylbenzoquinone); assay type: in vivo; settings: 10 mg/kg p.o. at 120 minutes
Protocol: The in vivo activity of the compounds of the invention was evaluated in an analgesia test.
Accordingly, intraperitoneal (i.p.) administration of PBQ (phenylbenzoquinone, 2 mg/kg in a 0.9% sodium chloride solution containing 5% of ethanol) to male OF1 mice weighing 25 to 30 g causes abdominal stretches, on average 30 twists or contractions during the period from 5 to 15 minutes after injection. The test compounds are administered orally (p.o.) or intraperitoneally (i.p.) in suspension in Tween 80 at 0.5%, 60 minutes or 120 minutes before the administration of PBQ.

Compound: CNC(=O)COC(=O)NCCC1CCN(Cc2ccc(-c3ccccc3)cc2)CC1 [Compound 25, 2-(methylamino)-2-oxoethyl 2-[1-(biphenyl-4-ylmethyl)piperidin-4-yl]ethylcarbamate]
- melting point: 106 to 110 °C
- IC50 [1]: 225 nM

Compound: CNC(=O)COC(=O)NCC1CCN(CCOc2ccc(Cl)cc2Cl)CC1 [Compound 77]
- IC50 [1]: 49 nM

Compound: CNC(=O)COC(=O)NCCC1CCN(Cc2ccc(-c3ccc(F)cc3)cc2F)CC1 [Compound 26, 2-(methylamino)-2-oxoethyl 2-{1-[(3,4′-difluorobiphenyl-4-yl)methyl]piperidin-4-yl}ethylcarbamate]
- melting point: 143 to 145 °C
- reduction of the number of stretches induced by PBQ [2]: 56%
